Experimental data reported in patent USH1551H, “Topical composition and method for reducing hair loss from human scalp” (priority 1982, dated 1996).

Key:
5α-DHT receptor protein = assay: Inhibitory effect on binding of 5α-DHT with the receptor protein; conditions: for Rate of inhibition (binding of 5α-DHT with the receptor protein): 10^-6 molar concentration
Protocol: Based on the method of Takayasu et al. (Arch. Dermatol. Res., 264, 50-51, 1979), the amount of 5α-DHT bound with the receptor protein was measured. The concentration of the sample used in the experiment was 10^-6 molar concentration. The rate of inhibition was calculated from the following equation using the resulting data.
Rate of inhibition (%)=(C-t/C)×100
C: the amount of 5α-DHT bound with the receptor protein in a control
t: the amount of 5α-DHT bound with the receptor protein when the sample was added

[1] = target: T1, testosterone-5α-reductase (Mesocricetus auratus, UniProt C7T2J7); assay: Inhibitory effect on the reductase activity (testosterone reduced to 5α-DHT, hamster sebaceous gland); assay type: biochemical; conditions: for inhibition at 100 µM: 10^-4 molar concentration; for inhibition at 100 µM / inhibition at 10 µM: read-out: Rate of inhibition (reductase activity); for inhibition at 10 µM: 10^-5 molar concentration
T1 construct: by using the sebaceous gland at the back of a hamster; from tissue; host or cells: sebaceous gland at the back of a hamster
T1 sequence (C7T2J7 1-255): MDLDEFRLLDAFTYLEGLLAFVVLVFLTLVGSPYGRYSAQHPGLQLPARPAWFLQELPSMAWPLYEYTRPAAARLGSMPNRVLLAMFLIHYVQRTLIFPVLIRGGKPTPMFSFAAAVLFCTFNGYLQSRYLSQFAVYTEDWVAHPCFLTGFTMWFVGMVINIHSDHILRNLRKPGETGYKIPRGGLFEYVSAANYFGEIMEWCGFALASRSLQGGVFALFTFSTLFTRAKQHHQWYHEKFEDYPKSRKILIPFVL
Protocol: Based on the method of Takayasu et al. (The Nishinihon Journal of Dermatology, 43, 1215-1217, 1981), the amount of testosterone reduced to 5α-DHT was measured by using the sebaceous gland at the back of a hamster. The concentrations of the samples used in the experiment were 10^-4 and 10^-5 molar concentrations, respectively. The rate of inhibition was calculated from the following equation using the resulting data.
Rate of inhibition (%)=(C-t/C) ×100
C: the amount of 5α-DHT formed in a control
t: the amount of 5α-DHT formed when the sample was added

[2] = system: uptake of testosterone into the cells; assay: Inhibition of uptake of testosterone into the cells; assay type: cell-based
hair and scalp = assay: Toxicity test of the present hair grower (local application); assay type: in vivo, human; conditions: 0.2% ethanol solution
[3] = Acute toxicity (LD50) of oxendolone, rat; conditions: in vivo
From the text: (§1) The systemic acute toxicity of oxendolone is as follows:
(§2) Acute Toxicity (LD50 : mg/kg)

[4] = Acute toxicity (LD50) of oxendolone, mouse; conditions: in vivo
From the text: as §1, §2

[5] = system: head sebum / basal cells of hair; assay: Decrease of head sebum and mitosis of basal cells of hair; conditions: coupled with the defatting actions of ethanol
[6] = system: MPB (male pattern baldness); assay: Clinical cases, male pattern baldness (MPB), topical application; assay type: in vivo, human; conditions: The patient; Resorcinol and other lotions for application
From the text: The following preparations were used in the tests (1)-(22). MPB represents male pattern baldness.

With `C[C@]12CC[C@H]3[C@@H](CCC4=CC(=O)CC[C@@]43C)[C@@H]1CC[C@@H]2C(=O)O` [4-androsten-3-one-17β-carboxylic acid] the “Rate of inhibition (binding of 5α-DHT with the receptor protein)” value (5α-DHT receptor protein) was 0%, the inhibition at 100 µM [1] was 54 ± 32% and the inhibition at 10 µM [1] was 31 ± 19%.

For `CC[C@H]1C[C@H]2[C@@H]3CCC4=CC(=O)CC[C@@H]4[C@H]3CC[C@]2(C)[C@H]1O` [Oxendolone, 16β-ethyl-17β-hydroxy-4-estren-3-one], the “inhibition of uptake of testosterone into the cells” value [2] was “inhibit uptake of testosterone into the cells”, the “Rate of inhibition (binding of 5α-DHT with the receptor protein)” value (5α-DHT receptor protein) was 53% and the “inhibitory effect on the binding of 5α-DHT with the receptor protein compared with 4-androsten-3-one-17β-carboxylic acid” value (5α-DHT receptor protein; comparison, Table 2) was “greater”. The local acute toxicity (hair and scalp; 0.05 ml/cm^2, several times a day) was “No local acute toxicity was observed”, the “other systemic or local side effect” value (hair and scalp; in the application schedule) was “No other systemic or local side effect was observed” and the LD50 ([3]; im, female, intramuscular) was greater than 10000 mg/kg. It also gave an LD50 ([3]; im, male, intramuscular) greater than 10000 mg/kg, an LD50 ([3]; ip, female, intraperitoneal) of 5880 mg/kg and an LD50 ([3]; ip, male, intraperitoneal) of 6530 mg/kg. For the same compound, the solubility in ethanol (Solubility of oxendolone; ethanol) was “soluble”, the “solubility in vegetable oils, squalane, alcohols, fatty acids, silicone oils, etc.” value (Solubility of oxendolone; vegetable oils etc.) was “dissolved totally or partially” and the solubility in water (Solubility of oxendolone; water) was “practically insoluble”. For the same compound, the inhibition at 100 µM [1] was 43 ± 18%, the inhibition at 10 µM [1] was 28 ± 28% and the “inhibitory effect on the reductase activity compared with 4-androsten-3-one-17β-carboxylic acid” value ([1]; comparison, Table 1) was “equivalent inhibitory effect on the reductase activity”. It also gave an LD50 ([4]; im, female, intramuscular) greater than 10000 mg/kg, an LD50 ([4]; im, male, intramuscular) greater than 10000 mg/kg and an LD50 ([4]; ip, female, intraperitoneal) of 2980 mg/kg. For the same compound, the LD50 ([4]; ip, male, intraperitoneal) was 2930 mg/kg and the “decrease of head sebum and mitosis of basal cells of hair” value [5] was “synergistically produce a decrease of head sebum and promote the mitosis of basal cells of hair”.

With `Oc1cccc(O)c1` [Resorcinol] the “effect of previous treatment, case (9)” value [6] was “no appreciable change”.
